From US8258128B2, “Organic compounds” (Novartis AG, priority 2006, dated 2012) come the findings set out here.

Structures can show the parent of a compound that is named as a salt.

Data set [1] has as its system rat carrageenan edema model. As to the kind of experiment: Carrageenan edema in the rat (paw swelling). Format: in vivo. The conditions noted are these: for % inhibition of paw swelling: 3 mg/kg p.o. The procedure:
Carrageenan edema in the rat: The effects of COMPOUND A are investigated in the carrageenan edema model. In this model an acute paw swelling is induced by the sub-plantar injection of carrageenan. The paw swelling has a duration of approximately 8 hours and is completely resolved at 24 hours. The model is used to assess anti-inflammatory activities of new therapeutics and is also sensitive to drugs such as COX-inhibitors like Diclofenac, which is used as a positive control compound in the model.
Method: Male OFA rats (5 animals/group) are treated orally with COMPOUND A (1, 3 and 9 mg/kg), Diclofenac (3 mg/kg) or vehicle (placebo formulation). One hour later (0 hours) the rats receive a 100 μl intra-plantar injection of a 1% w/v carrageenan solution in 0.9% saline in the hind paw and the diameter of the paw is measured by means of a micro-caliper. The paw diameter measurements are repeated 3 and 5 hours after injection of the carrageenan. Percentage inhibition of paw swelling at 3 and 5 hours is calculated by reference to vehicle treated animals (0% inhibition).
Edema is induced by a sub-plantar injection of carrageenan in the paw of the rat. Paw diameters are measured at the time of carrageenan injection (0 hours) and at 3 and 5 hours. Compounds are administered 1 hour before the carrageenan injection. COMPOUND A was dosed at 1, 3 and 9 mg/kg p.o. and Diclofenac at 3 mg/kg p.o.
In general terms: The carrageenan paw model is a standard test of acute inflammation.

The test system of data set [2] is collagen-induced arthritis in the rats. Briefly: Collagen-induced arthritis in the rats, hind paw swelling. It counts as in vivo, rat. The text has this: Animal models of RA need to reflect at least some of the features found in human RA (Billingham et al., 1979). Collagen-induced arthritis (CIA) has been proposed to meet these requirements (Durie et al., 1994). Especially the similarity in the joint pathophysiology makes this animal model most attractive for the evaluation of anti-rheumatic drugs (Takeshita et al., 1997). Synovial hyperplasia, which is an integral part of the disease, parallels the migration of leukocytes into the joint space; erosion and destruction of the cartilage surface can also be found (Holmdahl et al., 1985). The rat CIA, originally described by Trentham et al. (1977), was established and extensive studies with CsA were done, including three-dimensional magnetic resonance imaging (MRI) and histology (Beckmann et al., 1995; 1998). Differences in the susceptibility of several rat strains for the development of the disease have been reported (Cremer et al., 1995; Kamada et al., 1997; Knoerzer et al., 1997).
(§1) Method: For this study, COMPOUND A and COX-inhibitor Diclofenac are dissolved in a solvent containing 5% of glucose (5 ml/kg). Compounds are given orally once a day. Female rats of the WAGxBUF/F1 crossbred strain (weight 130 g) are used. The animals are divided into several groups, one placebo group (N=8), and four treatment groups (each N=7-8). Treatment starts on peak of disease (day 0) and continues for 11 days. Swelling is assessed at regular time intervals by measuring the external thickness of the hind paws in the region of the metatarsals using a micro-caliper. Tissue samples for histological evaluation are obtained at the end of the in vivo experiment, 5 h after the last oral dose of COMPOUND A or placebo on day 11.
Results shown are means±SEM of groups of each 4-8 animals of paw diameters in mm on day-12 (before the immunization with Type II collagen in incomplete Freund's adjuvant), day 0 (start of treatment) and day 11 (end of treatment).
The data shown represent the ability of the treatment (COMPOUND A at 4 different increasing doses) to reduce the volume of the hind paw measured at day 2, day 7 and day 11.

Data set [3] has the same test system. Briefly: Collagen-induced arthritis in the rats, histological evaluation of hind paws. Format: in vivo, rat. The conditions noted are these: 1 mg/kg/day p.o., day 11. As for the experimental part:
as §1
Hind paws from control arthritic rats (vehicle-treated), taken post-mortem at the end of day 11 of the treatment, obtained relatively high histological scorings compared to histological scores of animals treated with COMPOUND A (0.3, 1, 3 and 9 mg/kg) or Diclofenac (1 mg/kg).

For data set [4], the system named is established Adjuvant-induced arthritis in rats. As to the kind of experiment: Established adjuvant-induced arthritis in rats (therapeutic dosing schedule). It counts as in vivo, rat. The conditions noted are these: 1 mg/kg/day p.o., 7 day treatment (Table 7). From the text: Adjuvant arthritis can be treated using two different dosing schedules; either starting at the time of immunization with adjuvant (prophylactic dosing) or from day 15 when the arthritic response is already established (therapeutic dosing). It is more difficult to inhibit adjuvant arthritis with the therapeutic dosing schedule as compared to the prophylactic schedule. Both versions of adjuvant arthritis are, however, extremely sensitive to the effects of both non-selective COX inhibitors and COX 2 selective inhibitors where 70-90% inhibition of swelling can be achieved at appropriate doses. These models may be predictive for some of the processes thought to be relevant in rheumatoid arthritis.
Method: Female Wistar rats weighing 150-170 g (housed in standard conditions, 5 animals per cage, with food and water ad libitum) are injected i.d. at the base of the tail with 0.1 ml of mineral oil containing 0.6 mg of lyophilized heat-killed Mycobacterium tuberculosis. The rats are treated orally with COMPOUND A or placebo formulation from day 15 to day 22 (therapeutic dosing schedule) or with COMPOUND A from day 0 to day 14 after immunization (prophylactic dosing schedule). At the end of the experiment, the swelling of the tarsal joints is measured by means of a micro-caliper. For the comparison study to Diclofenac both compounds are given from day 15 to day 29 with readouts at day 22 and 29. Percentage inhibition of paw swelling is calculated by reference to placebo treated arthritic animals (0% inhibition) and placebo treated normal animals (100% inhibition). Five animals are used per group. Data are analyzed using Kruskal-Wallis non-parametric ANOVA followed by Dunn's Multiple Comparison test.

What is called melting point is the temperature, or range, at which the solid turns liquid. As to `COC1=Nc2cc(Cl)ccc2/C(=C/C(=O)O)c2sccc21` [Compound 1.001, [7-Chloro-10-methoxy-3-thia-9-aza-benzo[f]azulen-(4Z)-ylidene]-acetic acid], the melting point lay within 186 to 188 °C.

Regarding `O=C(O)Cc1ccccc1Nc1c(Cl)cccc1Cl` [Diclofenac, sodium salt of 2-[(2,6-dichlorophenyl)amino]benzeneacetic acid, reference compound], in data set [1] (3 hrs after carrageenan), the “% inhibition of paw swelling” value stood at 91%. Further, the “% inhibition of paw swelling” value in data set [1] (5 hrs after carrageenan) is on record as 87%. Besides, in data set [1] (3 mg/kg, at both times (3 and 5 hours)), the “inhibition in the carrageenan edema model” value is given as 87-91%. In addition, in data set [2] (1 mg/kg group, Day 0 (start of treatment)), the “hind paw diameter, mean ± SEM” value was found to be 5.300 ± 0.265 mm. In data set [2] (1 mg/kg group, Day −12 (before immunization)), the “hind paw diameter, mean ± SEM” value was found to be 3.038 ± 0.024 mm. For the same compound, in data set [2] (1 mg/kg per day p.o.), the “median inhibition of swelling, analysis of the AUC during day 0 to 11” value was 57±9.9%. Besides, the “hind paw diameter, mean ± SEM” value in data set [2] (1 mg/kg per day p.o., Day 11 (end of treatment)) is given as 3.750 ± 0.029 mm. In addition, in data set [3], the “Bone apposition, effect on histological score” value is −38%; the “Cartilage damage, effect on histological score” value is on record as −32%; the “Infiltration of cells, effect on histological score” value is on record as −22%; the “Loss of PG, effect on histological score” value is on record as −24%. Further, the “Swelling (mm) ± S.D.” value in data set [4] is on record as 4.27 ± 0.31 mm.
